Reference: the supplement of paper PMC4858399
Counter-ions that a name gives are not always drawn.

Legend:
[1] = system: Caenorhabditis elegans N2; assay: mean nematode size ln(EXT) after 48 h, plate-adjusted (DMSO control set to 6) (ln(EXT), control-adjusted); higher = larger nematodes / less growth inhibition; settings: exposure time 48 h
In short: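 Synchronised C. elegans N2 L1 larvae were grown for 48 h at 20°C in K-medium containing killed OP50, 1% DMSO and 0.5–200 µM chemical, at 50 per well and 4–6 wells per treatment. The Biosort recorded extinction for each worm, and a growth model removed debris. Worm size was obtained by natural-logging these values and averaging them per well. For plate adjustment, the vehicle control mean was subtracted and 6 was added.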

[2] = system: Caenorhabditis elegans N2; assay: lowest effective concentration for larval growth inhibition (size below effect threshold); higher = less potent; settings: exposure time 48 h
In short: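 Log-transformed well means of per-worm extinction, read as size on a Biosort, came from 50 C. elegans N2 L1 larvae per 96-well grown 48 h at 20°C in K-medium with killed bacteria, 1% DMSO and 0.5 to 200 µM chemical. The lowest effective concentration is the first dose at which the plate-adjusted mean size is below the threshold and stays below it at every higher dose. The threshold is 5.665.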

SMILES | mean nematode size ln(EXT) (ln) ([1]; 0.5 µM) | mean nematode size ln(EXT) (ln) ([1]; 1 µM) | mean nematode size ln(EXT) (ln) ([1]; 5 µM) | mean nematode size ln(EXT) (ln) ([1]; 10 µM) | mean nematode size ln(EXT) (ln) ([1]; 50 µM) | mean nematode size ln(EXT) (ln) ([1]; 100 µM) | mean nematode size ln(EXT) (ln) ([1]; 200 µM) | lowest effective concentration [2] [µM]
O=[N+]([O-])c1ccc(O)cc1 [4-Nitrophenol] | 5.92 | 5.82 | 5.87 | 5.69 | 5.89 | 5.8 | 5.8 | > 200
CC(=O)OC1CC(C)OC(C)O1 (stereo not drawn) [2,6-Dimethyl-1,3-dioxan-4-ol acetate] | 5.93 | 5.93 | 5.88 | 5.95 | 6.12 | 5.75 | 5.84 | > 200
C[N+]1(C)CCCCC1 [Mepiquat chloride] | 5.73 | 5.8 | 6 | 5.91 | 5.96 | 6.13 | 5.9 | > 200
COc1ccc(C)cc1N [p-Cresidine] | 5.84 | 5.85 | 5.84 | 5.83 | 5.85 | 5.89 | 5.83 | > 200
CC1(C)C(=O)N(Cl)C(=O)N1Cl [1,3-Dichloro-5,5-dimethylhydantoin] | 5.81 | 5.79 | 5.79 | 5.82 | 5.83 | 5.8 | 5.67 | > 200
Cc1ccc(O)cc1C [3,4-Dimethylphenol] | 5.87 | 5.86 | 5.92 | 5.91 | 5.95 | 5.86 | 5.86 | > 200
O=C(O)c1nc(Cl)ccc1Cl [Clopyralid] | 5.75 | 5.75 | 5.75 | 5.87 | 5.93 | 5.89 | 6.08 | > 200
CC1(C)NC(=O)NC1=O [5,5-Dimethylhydantoin] | 5.74 | 5.99 | 6.06 | 5.91 | 5.97 | 5.93 | 5.79 | > 200
CCC(C)OC(=O)N1CCCCC1CCO (stereo not drawn) [Icaridin] | 5.45 | 5.77 | 5.76 | 6.03 | 5.43 | 5.79 | 5.97 | > 200
CCCOC(=O)NCCCN(C)C [Propamocarb hydrochloride] | 5.84 | 5.93 | 5.9 | 5.93 | 6.01 | 5.91 | 5.89 | > 200
Cc1ccc(O)cc1 [4-Methylphenol] | 5.84 | 5.98 | 5.92 | 5.87 | 5.96 | 5.8 | 5.83 | > 200
CC(O)CO (stereo not drawn) [Propylene glycol] | 6.09 | 5.99 | 6.05 | 6.02 | 5.91 | 5.9 | 5.71 | > 200
Cc1cccc(Nc2cc(Cl)nc(SCC(=O)O)n2)c1C [Pirinixic acid] | 6.05 | 5.95 | 5.99 | 5.97 | 5.94 | 5.77 | 5.93 | > 200
O=P1(N(CCCl)CCCl)NCCCO1 (stereo not drawn) [Cytoxan hydrate] | 5.87 | 5.9 | 5.89 | 5.8 | 5.92 | 5.9 | 5.93 | > 200
COP(=O)(NC(C)=O)SC (stereo not drawn) [Acephate] | 5.69 | 5.74 | 5.76 | 5.69 | 5.85 | 5.77 | 5.99 | > 200
COc1cc(-c2nc(NC(=O)c3cc4cc(C)cc(C)c4n3CC(=O)O)sc2CCC2CCCCC2)c(OC)cc1Cl | 5.89 | 5.89 | 5.88 | 5.87 | 5.92 | 5.83 | 5.69 | > 200
O=C1O[C@H]([C@H](O)CO)C([O-])=C1O.[Na+] [Sodium erythorbate] | 5.96 | 5.89 | 5.94 | 5.98 | 6 | 5.9 | 5.68 | > 200
COCCOCCOC [Bis(2-methoxyethyl) ether] | 5.88 | 5.82 | 5.78 | 5.69 | 5.85 | 5.83 | 5.8 | > 200
O=C(O)c1ccccc1 [Benzoic acid] | 5.63 | 5.77 | 5.73 | 5.77 | 5.72 | 5.73 | 6.04 | > 200
CC(=O)Oc1ccccc1C(=O)O [Aspirin] | 5.74 | 5.85 | 5.81 | 6.1 | 5.89 | 5.89 | 5.71 | > 200
C=CC(=O)NCNC(=O)C=C [N,N'-Methylenebis(acrylamide)] | 6.06 | 6.06 | 6.06 | 6.01 | 6 | 6.05 | 5.83 | > 200
O=[N+]([O-])c1ccc(Cl)cc1 [1-Chloro-4-nitrobenzene] | 5.94 | 5.94 | 5.97 | 5.87 | 6.01 | 6 | 5.75 | > 200
O=NO [Sodium nitrite] | 6 | 6.02 | 6.05 | 6.03 | 6.08 | 6.04 | 5.75 | > 200
CCn1nc(C)c2c1C(=O)NCC(c1ccc(O)cc1)=N2 | 5.87 | 5.81 | 5.85 | 5.89 | 5.87 | 5.9 | 5.71 | > 200
NNC(=O)c1ccncc1 [Isoniazid] | 5.78 | 5.82 | 5.77 | 5.64 | 5.82 | 5.88 | 5.65 | 200
CCCCCCCCOC(=O)c1ccccc1C(=O)OCCCCCCCC [Di-n-octyl phthalate] | 5.93 | 5.87 | 5.9 | 5.85 | 5.88 | 5.83 | 5.83 | > 200
